Results: ChEMBL document CHEMBL1201862, “PubChem BioAssay data set” (2004)
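Test compounds were applied to cells in 96-well plates for 48 hours at 5 doses. GI50 marks 50% less growth.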 Active and inactive are the calls of the source. Cut-off read from the data, not from the text of the source: active = GI50 up to about 1.1 µM and inactive = higher.

Experiments:
Test in all cases: growth of human tumour cells (NCI), 48 h
EKVX = system: EKVX
DU-145 = system: DU-145
CAKI-1 = system: CAKI-1
HCT-116 = system: HCT-116
Hs-578T = system: Hs-578T
OVCAR-8 = system: OVCAR-8
UACC-62 = system: UACC-62
SK-MEL-5 = system: SK-MEL-5
A549 = system: A549
A498 = system: A498
K562 = system: K562
SK-MEL-28 = system: SK-MEL-28
786-0 = system: 786-0
PC-3 = system: PC-3
KM12 = system: KM12
SW-620 = system: SW-620
MOLT-4 = system: MOLT-4
HOP-62 = system: HOP-62
OVCAR-3 = system: OVCAR-3
NCI-H522 = system: NCI-H522
ACHN = system: ACHN
MDA-MB-435 = system: MDA-MB-435
IGROV-1 = system: IGROV-1
LOX IMVI = system: LOX IMVI
OVCAR-4 = system: OVCAR-4
SNB-19 = system: SNB-19
SN12C = system: SN12C
MDA-MB-231 = system: MDA-MB-231
UO-31 = system: UO-31
HT-29 = system: HT-29
Malme-3M = system: Malme-3M
NCI-H460 = system: NCI-H460
OVCAR-5 = system: OVCAR-5
HOP-92 = system: HOP-92
UACC-257 = system: UACC-257
MDA-N = system: MDA-N
SF-539 = system: SF-539
BT-549 = system: BT-549
COLO 205 = system: COLO 205
SF-268 = system: SF-268
HL-60 = system: HL-60
M14 = system: M14
HCC 2998 = system: HCC 2998
MCF7 = system: MCF7
SK-MEL-2 = system: SK-MEL-2
NCI/ADR-RES = system: NCI/ADR-RES
SF-295 = system: SF-295
SK-OV-3 = system: SK-OV-3
U-251 = system: U-251
NCI-H23 = system: NCI-H23
CCRF-CEM = system: CCRF-CEM
T47D = system: T47D
HCT-15 = system: HCT-15
TK-10 = system: TK-10
RXF 393 = system: RXF 393
SNB-75 = system: SNB-75
SR = system: SR
NCI-H226 = system: NCI-H226
RPMI-8226 = system: RPMI-8226

COc1cc2cc(C(=O)N3CC(CCl)c4ccccc43)[nH]c2c(OC)c1OC (stereo not drawn)
GI50 (EKVX): > 66.1 µM (inactive)
GI50 (DU-145): 62.1 µM (inactive)
GI50 (CAKI-1): 61.2 µM (inactive)
GI50 (HCT-116): 67.9 µM (inactive)
GI50 (Hs-578T): > 100 µM (inactive)
GI50 (OVCAR-8): 81.8 µM (inactive)
GI50 (UACC-62): 55.5 µM (inactive)
GI50 (SK-MEL-5): 24.7 µM (inactive)
GI50 (A549): 47.1 µM (inactive)
GI50 (A498): 18.2 µM (inactive)
GI50 (K562): 3.1 µM (inactive)
GI50 (SK-MEL-28): > 100 µM (inactive)
GI50 (786-0): 97.5 µM (inactive)
GI50 (PC-3): 21.9 µM (inactive)
GI50 (KM12): 23.5 µM (inactive)
GI50 (SW-620): 60.1 µM (inactive)
GI50 (MOLT-4): 13.4 µM (inactive)
GI50 (HOP-62): > 56.2 µM (inactive)
GI50 (OVCAR-3): > 100 µM (inactive)
GI50 (NCI-H522): 17.2 µM (inactive)
GI50 (ACHN): > 77.3 µM (inactive)
GI50 (MDA-MB-435): 19.2 µM (inactive)
GI50 (IGROV-1): > 100 µM (inactive)
GI50 (LOX IMVI): 44.8 µM (inactive)
GI50 (OVCAR-4): > 94.4 µM (inactive)
GI50 (SNB-19): > 100 µM (inactive)
GI50 (SN12C): 5.6 µM (inactive)
GI50 (MDA-MB-231): > 100 µM (inactive)
GI50 (UO-31): 47.4 µM (inactive)
GI50 (HT-29): 26.8 µM (inactive)
GI50 (Malme-3M): 36.5 µM (inactive)
GI50 (NCI-H460): 17.5 µM (inactive)
GI50 (OVCAR-5): > 100 µM (inactive)
GI50 (HOP-92): > 100 µM (inactive)
GI50 (UACC-257): 99.3 µM (inactive)
GI50 (MDA-N): 40.5 µM (inactive)
GI50 (SF-539): > 100 µM (inactive)
GI50 (BT-549): 28.6 µM (inactive)
GI50 (COLO 205): 33.8 µM (inactive)
GI50 (SF-268): > 100 µM (inactive)
GI50 (HL-60): 16.3 µM (inactive)
GI50 (M14): 62.5 µM (inactive)
GI50 (HCC 2998): 17.2 µM (inactive)
GI50 (MCF7): 32.2 µM (inactive)
GI50 (SK-MEL-2): 62.5 µM (inactive)
GI50 (NCI/ADR-RES): 34.8 µM (inactive)
GI50 (SF-295): 70.3 µM (inactive)
GI50 (SK-OV-3): > 100 µM (inactive)
GI50 (U-251): > 69.2 µM (inactive)
GI50 (NCI-H23): > 100 µM (inactive)
GI50 (CCRF-CEM): > 36.6 µM (inactive)
GI50 (T47D): 13.8 µM (inactive)
GI50 (HCT-15): 24.1 µM
GI50 (TK-10): > 100 µM (inactive)
GI50 (RXF 393): > 100 µM (inactive)
GI50 (SNB-75): > 92.5 µM (inactive)
GI50 (SR): 18.1 µM (inactive)
GI50 (NCI-H226): > 100 µM (inactive)
GI50 (RPMI-8226): 10.6 µM (inactive)

COc1cc(C2c3cc4c(cc3OC(N3CCCCC3)C2C)OCO4)cc(OC)c1OC (stereo not drawn)
GI50 (EKVX): 10.3 µM (inactive)
GI50 (DU-145): 3.49 µM (inactive)
GI50 (CAKI-1): 2.46 µM (inactive)
GI50 (HCT-116): 3.37 µM (inactive)
GI50 (Hs-578T): 2.09 µM (inactive)
GI50 (OVCAR-8): 5.11 µM (inactive)
GI50 (UACC-62): 3.53 µM (inactive)
GI50 (SK-MEL-5): 2.62 µM (inactive)
GI50 (A549): 4.04 µM (inactive)
GI50 (A498): 3.38 µM (inactive)
GI50 (K562): 2.44 µM (inactive)
GI50 (SK-MEL-28): 10.5 µM (inactive)
GI50 (786-0): 3.42 µM (inactive)
GI50 (PC-3): 3.5 µM (inactive)
GI50 (KM12): 2.88 µM (inactive)
GI50 (SW-620): 3.2 µM (inactive)
GI50 (MOLT-4): 3.9 µM (inactive)
GI50 (HOP-62): 2.85 µM (inactive)
GI50 (OVCAR-3): 1.9 µM (inactive)
GI50 (NCI-H522): 2.49 µM (inactive)
GI50 (ACHN): 6.79 µM (inactive)
GI50 (MDA-MB-435): 0.67 µM (active)
GI50 (IGROV-1): 4.62 µM (inactive)
GI50 (LOX IMVI): 4.85 µM (inactive)
GI50 (OVCAR-4): 13 µM (inactive)
GI50 (SNB-19): 3.24 µM (inactive)
GI50 (SN12C): 6.07 µM (inactive)
GI50 (MDA-MB-231): 4.98 µM (inactive)
GI50 (UO-31): 5.02 µM (inactive)
GI50 (HT-29): 3.04 µM (inactive)
GI50 (Malme-3M): 5.83 µM (inactive)
GI50 (NCI-H460): 3.52 µM (inactive)
GI50 (OVCAR-5): 12.7 µM (inactive)
GI50 (HOP-92): 10.4 µM (inactive)
GI50 (UACC-257): 12.3 µM (inactive)
GI50 (MDA-N): 0.723 µM (active)
GI50 (SF-539): 2.2 µM (inactive)
GI50 (BT-549): 18.9 µM (inactive)
GI50 (COLO 205): 3.02 µM (inactive)
GI50 (SF-268): 9.02 µM (inactive)
GI50 (HL-60): 2.33 µM (inactive)
GI50 (M14): 2.83 µM (inactive)
GI50 (HCC 2998): 2.9 µM (inactive)
GI50 (MCF7): 1.44 µM (inactive)
GI50 (SK-MEL-2): 3.45 µM (inactive)
GI50 (NCI/ADR-RES): 3.17 µM (inactive)
GI50 (SF-295): 1.75 µM (inactive)
GI50 (SK-OV-3): 2.77 µM (inactive)
GI50 (U-251): 3.2 µM (inactive)
GI50 (NCI-H23): 3.41 µM (inactive)
GI50 (CCRF-CEM): 2.84 µM (inactive)
GI50 (T47D): 4.23 µM (inactive)
GI50 (HCT-15): 3.65 µM
GI50 (TK-10): 7.71 µM (inactive)
GI50 (RXF 393): 2.15 µM (inactive)
GI50 (SNB-75): 4.47 µM (inactive)
GI50 (SR): 3.27 µM (inactive)
GI50 (NCI-H226): 3.39 µM (inactive)
GI50 (RPMI-8226): 4.18 µM (inactive)
